“Also recorded” adds a separate entry of the source.
Tested on: Kras^G12D;Ikkα^ΔPEC mice
Assay: Autochthonous PDAC model
Type: in vivo, mouse
Protocol: To evaluate the effects of MP on tumor growth in the autochthonous model, Kras^G12D;Ikkα^Δpan mice, at 4 weeks of age, were treated with vehicle or 10 mg/kg EIPA (Sigma) by intraperitoneal injection every other day for 1 month. After that, surgically removed pancreata were weighed and used for further analysis. To evaluate the effects of MP on heterotopic xenografts, female homozygous BALB/c Nu/Nu nude mice were injected subcutaneously (s.c.) in both flanks at 7 weeks of age with 10^6 parental and IKKα KO MIA PaCa-2 cells mixed at a 1:1 dilution with BD Matrigel (BD Biosciences) in a total volume of 100 μl. Mice were treated with EIPA (7.5 mg/kg) for 15 days when tumors attained an average volume of 50-100 mm^3. As a control, animals treated with vehicle (DMSO in PBS) were used. Volumes (1/2×(width^2×length)) of s.c. tumors were calculated on the basis of measurements using digital calipers after 15 days of treatment. To evaluate the combination effects of autophagy and MP inhibition on tumor growth, C57BL/6 mice were injected s.c. at 7 weeks of age with 10^7 KC6141 cells in a total volume of 100 μl. Mice were treated with vehicle, EIPA (7.5 mg/kg), MRT68921 (10 mg/kg, MCE), or EIPA and MRT68921 for 21 days when tumors attained an average volume of 100 mm^3. Tumor volumes were calculated as above.
In some embodiments, to evaluate the effects of MP on tumor growth or survival in the autochthonous model, Kras^G12D;Ikkα^ΔPEC mice, at 4 weeks of age, were treated with vehicle or 10 mg/kg EIPA (Sigma) by i.p. injection every other day for 1 month. After that, surgically removed pancreata were weighed and used for further analysis and other mice were continued to maintain for survival. To evaluate the effects of MP on heterotopic xenografts, female homozygous BALB/c Nu/Nu nude mice were injected subcutaneously (s.c.) in both flanks at 7 weeks of age with 10^6 parental and IKKα^Δ MIA PaCa-2 cells or 1334 and 1444 cells mixed at a 1:1 dilution with BD Matrigel (BD Biosciences) in a total volume of 100 μl. Mice were treated with vehicle (DMSO in PBS), EIPA (7.5 mg/kg), MRT68921 (10 mg/kg) or MRT68921 and EIPA for 15 days when tumors attained an average volume of 50-100 mm^3. Volumes (1/2×(width^2×length)) of s.c. tumors were calculated on the basis of measurements using digital calipers after 15 days of treatment. To evaluate the combination effects of autophagy and MP inhibition on tumor growth, C57BL/6 mice were injected s.c. at 7 weeks of age with 10^6 parental, Ikkα KD, Nhe1 KD or Ikkα+Nhe1 DKD KC6141 cells in a total volume of 100 μl. Mice were treated with or without vehicle, EIPA (7.5 mg/kg), MRT68921 (10 mg/kg), or EIPA and MRT68921 for 21 days when tumors attained an average volume of 50-100 mm^3. Tumor volumes were calculated as above.
Cell imaging. Immunostaining was performed as described^44. Cells were cultured on coverslips and fixed in 4% PFA for 10 min at room temperature. After washing twice in PBS, cells were incubated in PBS containing 10% FBS to block nonspecific sites of antibody adsorption. The cells were then incubated with the appropriate primary antibodies (diluted 1:100) and secondary antibodies (diluted 1:500) in PBS containing 10% FBS with or without 0.1% saponin. For cell macropinosome visualization, 24 hrs after seeding, the cells were serum starved for 18 hrs. Macropinosomes were marked using a high-molecular-mass (70 KD) TMR-Dextran (Invitrogen)-uptake assay, wherein TMR-DEX was added to serum-free medium at a final concentration of 1 mg/ml for 30 min at 37° C. At the end of the incubation period, the cells were rinsed five times in cold PBS and immediately fixed in 4% PFA. For tissue macropinosome visualization^45, fresh pancreata were cut into pieces with an approximate 5-mm cuboidal shape. A tissue section was placed in a 24-well plate and injected 150 μL of 10 mg/ml TMR-DEX solution directly into the tissue piece. Another 250 μL of diluted TMR-DEX solution were added to the well to immerse the tissue section. […]

[1] = 10 mg/kg EIPA for 1 month vs vehicle

In the case of `CCN(c1nc(N)c(C(=O)N=C(N)N)nc1Cl)C(C)C` [EIPA, 5-(N-ethyl-N-isopropyl) amiloride], the “residual cancer tissue (histological analysis)” value (10 mg/kg EIPA for 1 month) is reported as “very little residual cancer tissue; also recorded: little residual cancer tissue”, the “IHC: acinar cell loss (amylase up, CK19 and SOX9 down)” value [1] is reported as “prevented acinar cell loss” and the “MP in TMR-DEX injected pancreata” value [1] is reported as “decreased MP”. The “histology (H&E): ADM, advanced PanIN formation, normal parenchyma” value [1] was “inhibited acinar-to-ductal metaplasia (ADM) and advanced pancreatic intraepithelial neoplasia (PanIN) formation, and preserved the normal pancreatic parenchyma”, the “pancreatic weight (a measure of tumor growth)” value (10 mg/kg EIPA i.p. every other day for 1 month, from 1 month of age, vs vehicle) was “markedly reduced; also recorded: significantly reduced” and the “survival (Kaplan-Meier)” value (10 mg/kg EIPA vs vehicle, n=12) was “substantially extended; also recorded: enhanced the percent survival rate”.

From patent US12458630B2, “Combination therapy for cancer” (The Regents of the University of California, priority 2020, dated 2025)
